The record followed here is patent publication US20240391954A1, “MC4R AGONIST PEPTIDES” (The Regents of the University of Michigan, priority 2021, published 2024).

Like-named read-outs stand apart in the source and are kept apart here. Positions of bridges follow the written chain, without caps; N, C: chain ends. Non-standard residues stand in square brackets, D forms with d. Residues, ends and D or L forms follow the SMILES beside them. A value given as a limit tells only on which side of the number the result lay.

As usually defined, the half-life is the time in which the quantity being followed falls by half. In general, EC50 refers to the concentration needed to bring the measured effect to its halfway point.

The target of one series is T1, human MC3R (Homo sapiens, UniProt P41968).
T1 construct: expressed in transfected cells; host or cells: HEK-293 cells stably expressing the GScAMP22F split-luciferase cAMP sensor (parent reporter line from Promega); MC3R clone generated in-house, G418 selection
Nature of the series: split-luciferase cAMP sensor assay, agonist mode (measurement window 1), hMC3R. The format is cell-based. Conditions: for Emax: % maximal activation, agonist mode, read-out: MC3R cAMP % max activation; for MC4R selectivity vs MC3R: MC4R versus MC3R. The gist of the method:
(§1)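 Live stable cell lines carrying receptor plus GloSensor cAMP22f split-luciferase, loaded with 4% D-luciferin in serum-free medium (~1% serum estimated during assay). Luminescence recorded during in-line peptide addition; direct agonist effect read in window 1, with 20 μM forskolin as normalization reference. EC50 from four-parameter sigmoid fit.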

A further series addresses T2, human MC1R (Homo sapiens, UniProt Q01726).
T2 construct: expressed in transfected cells; host or cells: HEK-293 cells stably expressing hMC1R and the GScAMP22F cAMP sensor
Description: split-luciferase cAMP sensor assay, agonist mode, hMC1R. In kind it is cell-based. Conditions: MC4R versus MC1R. The procedure, abridged: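 HEK-293 cells stably expressing hMC1R and the GScAMP22F split-luciferase cAMP sensor, preloaded 120 min at 37° C with D-luciferin in serum-free medium. Peptide responses were taken as peak luminescence over 2-13 min minus 2-min baseline, normalized to the α-MSH ECmax. EC50 was obtained from a four-parameter variable-slope fit.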

Series [1] is described as follows: Plasma protein binding (Centrifree ultrafiltration). The format is in vitro ADME. How it is done:
Solutions of test compound in DMSO were prepared at 1 mM, 100 uM and 10 uM, 5 ul of each solution of test compound was added to 495 uL plasma, and incubated at 25° C. for 5 min. Sample was added to a Centrifree® device, then centrifuged at 2000× g for 20 min to obtain desired filtrate volume. Initial plasma samples and ultrafiltrates were subjected to LC-MS/MS. % Free peptide=(concentration of ultrafiltrates/concentration of plasma)×100%. % Bound=100%−% Free

Another series is described as follows: Mouse plasma stability. In kind it is in vitro ADME. Particulars: 37° C.; for half-life at 1 µM: pooled mouse plasma. As to the method:
FIG. 3. Results of plasma stability testing for control peptides. Compounds shown were incubated in mouse plasma at 37° C. at 1 μM concentrations. 40 ul aliquots were removed at the times indicated and the reactions stopped with the addition of 160 μL cold acetonitrile containing 200 ng/ml of peptide internal standard (IS). The incubation solution was centrifuged at 3500 rpm for 10 minutes to precipitate protein. LC/MS/MS analysis was used to determine the % peptide remaining.
Pooled mouse plasma was prepared and stored at −80° C, prior to use, 396 μL mouse plasma was incubated at 37° C. for 5 minutes in 1.5 mL microcentrifuge tubes. 4 μL of 100 μM test or control compound/peptide was added to each tube and incubated for 0.5, 15, 30, 60, 120, or 240 minutes. An aliquot of 40 μL of each reaction was stopped by the addition of 4 volume of cold acetonitrile containing 200 ng/mL of […] solution was centrifuged at 3500 rpm for 10 minutes to precipitate protein. The supernatant was used for LC/MS/MS analysis. The natural log peak area ratio (compound peak area/internal standard peak area) was plotted against time and the gradient of the line determined.

The next series concerns the target T3, human MC4R (Homo sapiens, UniProt P32245).
T3 construct: host or cells: HEK-293 cells stably expressing the GScAMP22F split-luciferase cAMP sensor and hMC4R, G418 selection
Nature of the series: split-luciferase cAMP sensor assay, agonist mode (measurement window 1), hMC4R. In kind it is cell-based. Conditions: agonist mode; for Emax: % maximal activation, read-out: MC4R cAMP % max activation. The gist of the method:
as §1

T2 sequence (Q01726 whole entry): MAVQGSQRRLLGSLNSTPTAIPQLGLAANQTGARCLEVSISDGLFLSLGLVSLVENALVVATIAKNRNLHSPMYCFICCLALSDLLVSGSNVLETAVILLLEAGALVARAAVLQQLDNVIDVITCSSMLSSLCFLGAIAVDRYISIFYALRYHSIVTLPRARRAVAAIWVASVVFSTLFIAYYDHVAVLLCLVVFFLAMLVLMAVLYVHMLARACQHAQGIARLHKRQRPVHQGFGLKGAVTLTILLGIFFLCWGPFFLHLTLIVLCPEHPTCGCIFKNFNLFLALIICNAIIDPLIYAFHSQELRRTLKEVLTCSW
T3 sequence (P32245 whole entry): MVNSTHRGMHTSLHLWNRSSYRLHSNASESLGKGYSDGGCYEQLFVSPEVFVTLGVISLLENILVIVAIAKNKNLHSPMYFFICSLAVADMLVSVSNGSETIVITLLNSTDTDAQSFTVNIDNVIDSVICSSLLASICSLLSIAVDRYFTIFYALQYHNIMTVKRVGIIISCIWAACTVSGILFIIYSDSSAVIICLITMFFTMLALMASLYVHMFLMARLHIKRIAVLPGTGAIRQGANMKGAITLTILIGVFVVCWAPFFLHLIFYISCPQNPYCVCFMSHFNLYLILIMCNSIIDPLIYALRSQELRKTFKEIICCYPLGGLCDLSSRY
T1 sequence (P41968 whole entry): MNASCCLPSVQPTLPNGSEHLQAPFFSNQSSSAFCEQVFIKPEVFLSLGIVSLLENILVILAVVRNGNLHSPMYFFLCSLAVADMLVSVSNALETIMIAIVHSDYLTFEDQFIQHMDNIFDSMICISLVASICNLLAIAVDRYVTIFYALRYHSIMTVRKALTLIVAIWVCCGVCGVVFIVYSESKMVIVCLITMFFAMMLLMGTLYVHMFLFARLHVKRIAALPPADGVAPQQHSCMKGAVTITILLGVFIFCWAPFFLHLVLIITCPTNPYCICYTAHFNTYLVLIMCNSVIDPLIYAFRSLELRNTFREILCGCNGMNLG

Turning to `CC(=O)N[C@@H](CCCNC(=N)N)C(=O)N[C@H]1CSSC[C@@H](C(N)=O)NC(=O)[C@H](Cc2c[nH]c3ccccc23)NC(=O)[C@H](CCCNC(=N)N)NC(=O)[C@@H](Cc2ccccc2)NC(=O)[C@H](CCCNC(=N)N)NC(=O)[C@@H](C)NC1=O` [CTX-1211, Arg-cyclo(Cys-D-Ala-Arg-D-Phe-Arg-Trp-Cys)] (Ac-RC[dA]R[dF]RWC-NH2; disulfide 2-8 (inferred)), at human MC3R, the Emax is 91% and the “MC4R selectivity vs MC3R” value was determined as 5.49. Moreover, the “MC4R selectivity vs MC1R” value on human MC1R is 3.12. The compound further had a fraction unbound at 5 min, 0.1 µM in series [1] (0.1 uM) of 0.49. In series [1] (1.0 uM), the fraction unbound at 5 min, 1 µM was 0.37. Moreover, the fraction unbound at 5 min, 10 µM in series [1] (10.0 uM) was 0.39. Further, the half-life at 1 µM in “Mouse plasma stability” was above 3 h. The Emax at human MC4R is 96%.

As for `CC(=O)N[C@@H](CCCNC(=N)N)C(=O)N[C@H]1CSSC[C@@H](C(N)=O)NC(=O)[C@@H](Cc2c[nH]c3ccccc23)NC(=O)[C@H](CCCNC(=N)N)NC(=O)[C@@H](Cc2ccccc2)NC(=O)[C@H](CCCNC(=N)N)NC(=O)[C@H](C)NC1=O` [CTX-1268, Arg-cyclo(Cys-Ala-Arg-D-Phe-Arg-D-Trp-Cys)] (Ac-RCAR[dF]R[dW]C-NH2; disulfide 2-8), the Emax was 44% at human MC3R and 96% at human MC4R. The “MC4R selectivity vs MC3R” value at human MC3R came to 30. The “MC4R selectivity vs MC1R” value at human MC1R was 6.59. Also, the fraction unbound at 0.1 uM in series [1] (0.1 uM) is 0.48. For the same compound, the fraction unbound was 0.42 in series [1] (1.0 uM, read-out: Protein Binding 1.0 uM (converted)) and 0.38 in series [1] (10.0 uM, read-out: Protein Binding 10.0 uM (converted)). In addition, the half-life in “Mouse plasma stability” amounted to 1.75 h.

`CC(=O)N[C@@H](CCCNC(=N)N)C(=O)N[C@H]1CSSC[C@@H](C(N)=O)NC(=O)[C@H](Cc2c[nH]c3ccccc23)NC(=O)[C@H](CCCNC(=N)N)NC(=O)[C@@H](Cc2ccccc2)NC(=O)[C@H](CCCNC(N)=O)NC(=O)[C@@H](C)NC1=O` [CTX-1285, Arg-cyclo(Cys-D-Ala-Cit-D-Phe-Arg-Trp-Cys)]: on human MC3R, the Emax stood at 28% and the “MC4R selectivity vs MC3R” value is recorded as 2.9. In addition, at human MC1R, the “MC4R selectivity vs MC1R” value is listed as 134. This compound showed a fraction unbound at 5 min, 0.1 µM in series [1] (0.1 uM) of 0.55. The same compound had a fraction unbound at 5 min, 1 µM in series [1] (1.0 uM) of 0.61. In series [1] (10.0 uM), this compound showed a fraction unbound at 5 min, 10 µM of 0.59. In addition, the half-life at 1 µM in “Mouse plasma stability” is above 4 h. Moreover, the Emax on human MC4R worked out at 94%. Besides, on human MC4R (HEK-293 cells stably expressing hMC4R, read-out: MC4R cAMP EC50), the EC50 came out at 1.7 nM.
